This note sets out measurements from PMC11867202, “Phosphonoalamides Reveal the Biosynthetic Origin of Phosphonoalanine Natural Products and a Convergent Pathway for Their Diversification” (Angewandte Chemie (International ed. in English), 2024).

Experiment [1] deals with PnaA. The note with it: read-out: Km (apparent); co-substrate oxaloacetate; PLP.
Experiment [2] has as its system T1, PnaA.
T1 construct: recombinant, purified from E. coli; PLP-dependent
Put plainly: coupled spectrophotometric assay, NADH oxidation via malate dehydrogenase. In kind it is biochemical, Streptomyces sp. NRRL S-515. To be noted: co-substrate L-Asp; PLP; read-out: Km (apparent).

Experiment [3] concerns T2, PnaD.
T2 construct: recombinant, purified from E. coli; assayed coupled to PnaA
Put plainly: coupled spectrophotometric assay, NADH oxidation; PnaD with PnaA. In kind it is biochemical, Streptomyces sp. NRRL S-515. To be noted: two-enzyme system, 5:1 PnaD to PnaA; co-substrate L-Asp; read-out: Km (apparent). The text has this:
coupled spectrophotometric assay, NADH oxidation; PnaD with PnaA on PnaD | apparent steady state parameters for the conversion of PEP to L-PnAla in reactions with PnaD

The test system of experiment [4] is T1, PnaA. Put plainly: coupled spectrophotometric assay, NADH oxidation via PnPy reductase VlpB. In kind it is biochemical, Streptomyces sp. NRRL S-515. The note with it: reverse reaction; co-substrate oxaloacetate; PLP; varied substrate not explicitly named in main text; read-out: Km (apparent). The text has this:
coupled spectrophotometric assay, NADH oxidation via PnPy reductase VlpB on PnaA | the reverse reaction (transamination of PnAla and OAA to PnPy and Asp)

Read-outs that look alike come from different tables or passages of the source.

Usually Km stands for the substrate concentration at which the rate is half of its maximum. Turning to `N[C@@H](CCC(=O)O)C(=O)O` [Glu], the Km in experiment [1] was 7500 ± 700 µM. As to `O=C(O)CCC(=O)C(=O)O` [αKG], in experiment [2], the Km turned out to be 899 ± 97 µM. Take `O=C(O)C(=O)CP(=O)(O)O` [PnPy]: the Michaelis-Menten constant (Km) in experiment [2] was determined as 4.8 ± 0.4 µM.

For `C=C(OP(=O)(O)O)C(=O)O` [PEP], the Km in experiment [3] was determined as 546 ± 60 µM. In the case of `N[C@@H](CP(=O)(O)O)C(=O)O` [PnAla], in experiment [4], the Km was found to be 327 ± 40 µM.
